What was measured:
[1] = tested on: High-generation MSCs (Old MSCs); assay: CCK8 assay, proliferation of high-generation mesenchymal stem cells; type: cell-based; conditions: P10-15 MSCs; 50 μM, 100 μM, and 200 μM QCA in the medium
Description: (§1) 4. High-generation MSCs (Old MSCs) at P10-15 were plated in a 96 plate, and 50 μM, 100 μM, and 200 μM of QCA were added to the medium, respectively. The medium without adding QCA was used as a control. Low-generation MSCs (Young MSCs) at P4-7, high-generation MSCs (Old MSCs) at P10-15, as well as high-generation MSCs respectively treated with 50 μM and 200 μM QCA for 72 h, were subjected to Ki67 immunofluorescence staining, and the results were shown in FIG. 4B.

[2] = tested on: High-generation MSCs (Old MSCs); assay: Ki67 immunofluorescence staining of high-generation mesenchymal stem cells; type: cell-based; conditions: P10-15 MSCs; 50 μM and 200 μM QCA for 72 h
Description: as §1

[3] = tested on: High-generation MSCs (Old MSCs); assay: TUNEL staining of high-generation mesenchymal stem cells; type: cell-based; conditions: P10-15 MSCs; 50 μM and 200 μM QCA for 72 h
Description: (§2) 5. Low-generation MSCs (Young MSCs) at P4-7, high-generation MSCs (Old MSCs) at P10-15, as well as old MSCs respectively treated with 50 μM and 200 μM QCA for 72 h were subjected to TUNEL staining, and the results were shown in FIG. 5A. Old MSCs with 50 μM QCA were added to the medium all the time (a fresh medium containing QCA was changed every 2-3 days), and the medium without adding QCA was used as a control. The cells were passaged for 3 consecutive generations (passaged when the cells were 80-90% confluent) before being used for β-Gal staining tests, and the results were shown in FIG. 5B.

[4] = tested on: High-generation MSCs (Old MSCs); assay: β-Gal staining of high-generation mesenchymal stem cells; type: cell-based; conditions: 50 μM QCA all the time, passaged for 3 consecutive generations
Description: as §2

[5] = tested on: W1118 fruit flies; assay: lifespan test for fruit flies (survival curves); type: in vivo; conditions: male W1118; 115 μL of QCA (100 mM, 2 mg QCA/tube) in medium; days 20-30 and 40-50
Description: (6) The regular medium for rearing fruit flies was added with a preservative and dispensed. After which, 115 μL of QCA (100 mM, equivalent to 2 mg QCA/tube) was added dropwise to the medium, and the same volume of 95% ethanol was added to the control tube. On days 20-30 and 40-50 of fruit flies rearing, the tubes were replaced with QCA-containing rearing tubes for rearing. 3 male W1118 fruit flies and 3 virgin W1118 fruit flies were added to each rearing tube and bred for 3-5 days for a total of 20 tubes. The parental fruit flies were cleared after about 5-6 days, and then adult occurred in about 10 days. A round of picking male fruit flies within 1 day after emergence was performed at a fixed time point each day for a total of 400 fruit flies, in which 20 fruit flies were placed in each tube labeled with the name, date, and number for a total of 20 tubes. Fruit flies were reared at 25° C., 50% humidity and 12 h light/12 h dark, the number of dead fruit flies in the tubes was counted and recorded every day, and the rearing tubes were changed every 3-4 days. The lifespan test for fruit flies in each group needed to be repeated three times independently and the recordings were entered into statistical software for analysis.

[6] = tested on: fruit flies; assay: tube-climbing test of fruit flies; type: in vivo; conditions: 20 male fruit flies; 17.5 cm marker; performance at 120 s
[7] = tested on: 21 month-old C57BL6/J mice; assay: observation of coat status and dermatitis in old mice; type: in vivo; conditions: 5 mg/kg QCA by consecutive gavage for 4 months
Description: (§3) (7) 21 month-old C57BL6/J mice were randomly divided into control and QCA groups. 0.9% saline was given to the control group (n=7 for male mice, and n=12 for female mice); and 5 mg/kg QCA was given to the QCA group (n=9 for male mice, and n=13 for female mice) by consecutive gavage for 4 months. […] The test mice were placed on the grip strength meter and the tail of the mice was gently pulled, so that the mice grasped the probe forcefully with the forelimbs and hindlimbs. The readings on the grip strength meter were recorded when the mice exerted the maximum force, the arm strength value in mice were obtained by averaging 3 repetitions of the measurements, and the results were shown in FIG. 7B. Blood was taken from the tail vein of mice 4 months after administration by gavage, the proportion of neutrophils (NEU) was measured by routine blood test, and the results were shown in FIG. 7C. […] The mice were examined periodically for the presence of spontaneous tumors, and the number of mice with spontaneous tumors in each group was recorded. […] Concentrations of alanine aminotransferase (ALT), aspartate aminotransferase (AST), and lactate dehydrogenase (LDH) in plasma were measured using a HITACHI 7600 Series (Japan) biochemical detector, and the results were shown in FIG. 7F. […]

[8] = tested on: 21 month-old C57BL6/J mice; assay: grip strength meter, arm strength of old mice; type: in vivo; conditions: 5 mg/kg QCA by consecutive gavage for 4 months
Description: as §3

[9] = tested on: 21 month-old C57BL6/J mice; assay: chronic inflammation in old mice (proportion of neutrophils by routine blood test, serum TNF-α by ELISA); type: in vivo; conditions: 5 mg/kg QCA by consecutive gavage for 4 months
Description: as §3

[10] = tested on: 21 month-old C57BL6/J mice; assay: plasma ALT, AST and LDH in old mice; type: in vivo; conditions: aged mice, 5 mg/kg QCA by consecutive gavage for 4 months
Description: as §3

[11] = tested on: 21 month-old C57BL6/J mice; assay: survival curves of old mice; type: in vivo; conditions: 5 mg/kg QCA by gavage; Ctrl (n=19) and QCA (n=26)
Description: (7) 21 month-old C57BL6/J mice were randomly divided into control and QCA groups. […] The test mice were placed on the grip strength meter and the tail of the mice was gently pulled, so that the mice grasped the probe forcefully with the forelimbs and hindlimbs. The readings on the grip strength meter were recorded when the mice exerted the maximum force, the arm strength value in mice were obtained by averaging 3 repetitions of the measurements, and the results were shown in FIG. 7B. Blood was taken from the tail vein of mice 4 months after administration by gavage, the proportion of neutrophils (NEU) was measured by routine blood test, and the results were shown in FIG. 7C. […] The mice were examined periodically for the presence of spontaneous tumors, and the number of mice with spontaneous tumors in each group was recorded. […] Concentrations of alanine aminotransferase (ALT), aspartate aminotransferase (AST), and lactate dehydrogenase (LDH) in plasma were measured using a HITACHI 7600 Series (Japan) biochemical detector, and the results were shown in FIG. 7F. Survival times were recorded to make the survival curves of the mice in the Ctrl (n=19) and QCA (n=26) groups, and the results were shown in FIG. 7G.

[12] = tested on: C57BL6/J mice older than 18 months; assay: ⅔ partial hepatectomy model in old mice, liver to body weight ratio; type: in vivo; conditions: 5 mg/kg QCA intraperitoneally
Description: (§4) (8) Establishment of ⅔ partial hepatectomy model in old mice (⅔PHx): C57BL6/J mice older than 18 months were anesthetized with 2% isoflurane by inhalation and underwent a median abdominal incision. The left external and median lobes of the liver were resected separately with 4-0 silk sutures, and the associated vessels and bile ducts were ligated. Mice were injected intraperitoneally with 5 mg/kg QCA or an equal volume of DMSO 2 h before ⅔PHx surgery, and 24 h, 48 h and 72 h after ⅔PHx surgery, respectively. Mice were sacrificed at 6 h, 48 h and 168 h after surgery, respectively, and liver specimens and plasma were collected. The postoperative survival time of mice was recorded and used to plot survival curves. Mice were weighed in advance and livers were weighed after liver extraction so that the liver to body weight ratio could be calculated. Concentrations of alanine aminotransferase (ALT), aspartate aminotransferase (AST), and lactate dehydrogenase (LDH) in plasma were measured using a HITACHI 7600 Series (Japan) biochemical detector. Mouse liver samples collected at specific time points were fixed in 4% paraformaldehyde overnight and then embedded in paraffin. A 3 μm-thick paraffin section was made for subsequent Ki67 immunohistochemical staining, and the specific procedure was as follows: after subjecting to antigen repairing in EDTA (pH 8.0), the sections were incubated with a primary antibody overnight at 4° C., and then incubated with a secondary antibody at 37° C. for 1 h. Sections were stained with diaminobenzidine and hematoxylin, and then visualized and imaged with an optical microscope.

[13] = tested on: C57BL6/J mice older than 18 months; assay: ⅔ partial hepatectomy model in old mice, plasma ALT, AST and LDH; type: in vivo; conditions: 5 mg/kg QCA intraperitoneally 2 h before and 24 h, 48 h and 72 h after ⅔PHx
Description: as §4, with “A 3 μm-thick paraffin section was made for subsequent Ki67 immunohistochemical staining, and the specific procedure was as follows: after subjecting to antigen repairing in EDTA (pH 8.0), the sections were incubated with a primary antibody overnight at 4° C., and then incubated with a secondary antibody at 37° C. for 1 h. Sections were stained with diaminobenzidine and hematoxylin, and then visualized and imaged with an optical microscope.” left out

[14] = tested on: C57BL6/J mice older than 18 months; assay: ⅔ partial hepatectomy model in old mice, survival; type: in vivo; conditions: 5 mg/kg QCA intraperitoneally 2 h before and 24 h, 48 h and 72 h after ⅔PHx
Description: as §4, with “A 3 μm-thick paraffin section was made for subsequent Ki67 immunohistochemical staining, and the specific procedure was as follows: after subjecting to antigen repairing in EDTA (pH 8.0), the sections were incubated with a primary antibody overnight at 4° C., and then incubated with a secondary antibody at 37° C. for 1 h. Sections were stained with diaminobenzidine and hematoxylin, and then visualized and imaged with an optical microscope.” left out

[15] = tested on: C57BL6/J mice older than 18 months; assay: ⅔ partial hepatectomy model in old mice, Ki67 immunohistochemical staining of liver; type: in vivo; conditions: 5 mg/kg QCA intraperitoneally 2 h before and 24 h, 48 h and 72 h after ⅔PHx
Description: as §4, with “A 3 μm-thick paraffin section was made for subsequent Ki67 immunohistochemical staining, and the specific procedure was as follows: after subjecting to antigen repairing in EDTA (pH 8.0), the sections were incubated with a primary antibody overnight at 4° C., and then incubated with a secondary antibody at 37° C. for 1 h. Sections were stained with diaminobenzidine and hematoxylin, and then visualized and imaged with an optical microscope.” left out

Compound: O=C(O)c1ccnc2ccccc12 [quinoline-4-carboxylic acid]
- cell proliferation (CCK8 assay) [1]: can promote cell proliferation
- cell proliferation (Ki67 immunofluorescence staining) [2]: can promote cell proliferation
- nuclear DNA breakage (TUNEL staining) [3]: reduces nuclear DNA breakage
- cell aging (β-Gal staining) [4]: retards cell aging
- lifespan of fruit flies (survival curves) [5]: prolongs the lifespan of fruit flies
- exercise capacity (tube-climbing test) [6]: enhances their exercise capacity
- symptoms such as poor coat and dermatitis [7]: can reduce the symptoms such as poor coat and dermatitis in old mice
- arm strength (reflecting the muscle strength) [8]: enhance the arm strength
- chronic inflammation (neutrophils, TNF-α) [9]: down-regulate the chronic inflammation
- enzymatic indexes of liver injury (ALT, AST, LDH) [10]: down-regulate the chronic inflammation and enzymatic indexes of liver injury in aged mice
- lifespan of the mice (survival curves) [11]: prolong the lifespan of the mice
- regenerative liver to body weight ratio at 6 h ([12]; 6 h after hepatectomy): does not significantly increase
- regenerative liver to body weight ratio at 48 h ([12]; 48 h after hepatectomy): significantly increases
- regenerative liver to body weight ratio at 168 h ([12]; 168 h after hepatectomy): does not significantly increase
- enzymatic indexes of liver injury (ALT, AST, LDH) after hepatectomy [13]: attenuates the enzymatic indexes of liver injury
- survival rate of mice after hepatectomy [14]: improves the survival rate of mice after hepatectomy
- Ki67-positive cells of liver tissue (immunohistochemical staining) [15]: more Ki67-positive cells of liver tissue in the QCA group
